Assay results published in US20090084166A1, “Sensors comprising a chelated metal ion linker layer” (priority 2007, published 2009).

Assays:
[1] = Non-specific binding test of CAII on the sensor surface without EDC/NHS activation; conditions: CAII flowed over surface 101 without prior activation with EDC/NHS
Description: Present on the activated dielectric surface 110 is a chelated metal ion linking layer 104. […] (RU stands for resonance unit and is directly proportional to the concentration of biomolecules on a surface. 1 RU is ca. 1 pg/mm^2.)
To test for non-specific binding, a ligand (CAII) was flowed over surface 101 through chamber 136 in the same manner as above but without any prior activation with EDC/NHS.

[2] = target: carbonic anhydrase II (CAII) (Homo sapiens, UniProt P00918); assay: SPR biomolecular interaction assay of CBS with immobilized CAII; format: binding; conditions: CBS 40 μM to 80 nM in phosphate-buffered saline, run over CAII surface
Description: During use, light source 142 directs a light beam 150 toward prism 120 by way of suitable optics. Light beam 150 passes into and through light-transmissive support 105 and reflects off metal layer 107. Reflected light 152 is received by optical detector 144. Optical detector 144 passes a corresponding signal to the detection circuitry 146. The ligand 102 is contacted with sample and may bind to analytes in the sample. Binding of analyte and ligand 102 causes a change in a property of the reflected light 152 that can be detected by optical detection system 130. Upon detection of the change in a property of the reflected light 152, the detection system may produce a sample-responsive signal. The resultant sample responsive signal may then be employed to assess the presence of analyte in the sample. In certain embodiments, the sample-responsive signal is in the form of a “sensorgram.” A sensorgram is a plot of response (measured in “resonance units” or “RU”) as a function of time. An increase of RU corresponds to an increase of mass on the sensor surface. […]
The ligand, (CAII) is immobilized on the surface layer as stated above in “ligand attachment”. […] Binding curves are produced of the analyte interaction with the enzyme and binding rates are calculated.

| non-specific binding [1] | Substance | Response units (binding to immobilized CAII) [2] |
| --- | --- | --- |
| ca. 10 RU | carbonic anhydrase II [CAII] | – |
| – | carboxybenzenesulfonamide [CBS] | proportional to the concentration of the analyte and are cleanly seen above the baseline |
